In brackets after ≈: the same amount, converted by molar mass. Activity calls are given as the source filed them. The calls are words filed in the database; no cut-off is given here.
How the values were obtained:
H22 [1] = test: Antitumor activity against mouse H22 cells allografted in mouse model assessed as decrease in MVD cells at 20 mg/kg by immunohistochemistry analysis; format: functional, organism-based
HUVEC [2] = test: Anti-angiogenesis activity in HUVEC cells assessed as disruption of capillary tube structure at 1.5 to 6 nM measured after 6 hrs by contrast microscopy based analysis; format: functional, cell-based; conditions: Homo sapiens, dose 1.5-6 nM
[3] = Antiproliferative activity against human HFL1 cells assessed as inhibition of cell growth measured after 72 hrs by MTT assay; format: toxicity, cell-based
K562 [4] = test: Induction of apoptosis in human K562 cells assessed as increase in bax level at upto 6 nM measured after 48 hrs by Western blot analysis; format: functional, cell-based
A549/TR = test: Antiproliferative activity against human A549/Taxol cells assessed as inhibition of cell growth measured after 72 hrs by MTT assay; format: functional, cell-based
[5] = Toxicity in mouse assessed as effect on body weight loss at 20 mg/kg, iv administered once daily for 3 weeks; format: organism-based; conditions: in vivo, 504 h
[6] = Toxicity in mouse assessed as effect on liver at 20 mg/kg by H and E staining based microscopic analysis; format: organism-based; conditions: in vivo
Tubulin (Homo sapiens) [7] = target: T1, Tubulin (Homo sapiens) (UniProt P68371+Q9H4B7+P0DPH7+P68366+Q13509+Q71U36+P04350+Q3ZCM7+P07437+P68363+Q9BQE3+Q6PEY2+Q13885+Q9BVA1+Q9BUF5); test: Inhibition of [3H]colchicine binding to tubulin (unknown origin) at 1 uM incubated for 2 hrs by scintillation counter analysis relative to control; format: protein-complex assay
K562 [8] = test: Induction of apoptosis in human K562 cells assessed as downregulation of bcl-2 level at upto 6 nM measured after 48 hrs by Western blot analysis; format: functional, cell-based
H22 [9] = test: Antitumor activity against mouse H22 cells allografted in mouse model assessed as decrease in Ki67 positive cells at 20 mg/kg by immunohistochemistry analysis; format: functional, organism-based
[10] = Toxicity in mouse assessed as effect on lung at 20 mg/kg by H and E staining based microscopic analysis; format: organism-based; conditions: in vivo
[11] = Aqueous solubility of the compound by HPLC analysis; format: physicochemical; conditions: aqueous (not further specified)
HUVEC [12] = test: Anti-angiogenesis activity in HUVEC cells assessed as reduction in […] at 400 nM measured after 24 hrs by wound healing assay relative to control; format: functional, Homo sapiens; parameters: scale not given: the % may be the effect or the level left
Cell membrane = test: Induction of mitochondrial membrane depolarization in human K562 cells assessed as increase in green fluorescence intensity at incubated for 48 hrs by JC-1 staining based flow cytometry; format: cell membranes; conditions: dose 1.5-6 nM
[13] = Metabolic stability in mouse liver microsomes assessed as half life at 100 uM measure upto 60 mins in presence of NADPH by LC-MS/MS analysis; format: ADME, Microsome
K562 [14] = test: Induction of apoptosis in human K562 cells assessed as chromatin aggregation at 1.5 to 6 nM incubated for 24 hrs by Hoechst 33342 staining based fluorescence microscopic analysis; format: functional, cell-based; conditions: dose 1.5-6 nM
A549 [15] = test: Antiproliferative activity against human A549 cells assessed as inhibition of cell growth at 0.01 uM measured after 72 hrs by MTT assay relative to control; format: functional
K562 [16] = test: Induction of cell cycle arrest in human K562 cells assessed as accumulation of cells at S phase at 6 nM incubated overnight by PI staining based flow cytometry analysis (reference value: 15.98%); format: functional
HUVEC [17] = test: Anti-angiogenesis activity in HUVEC cells at 1.5 to 6 nM measured after 24 hrs by wound healing assay; format: functional, cell-based; conditions: Homo sapiens, dose 1.5-6 nM
K562 [18] = test: Induction of apoptosis in human K562 cells at 1.5 nM measured after 48 hrs by Annexin V-FITC/7-AAD staining based flow cytometric analysis relative to control; format: functional
K562 [19] = test: Induction of apoptosis in human K562 cells assessed as nuclear fragmentation at 1.5 to 6 nM incubated for 24 hrs by Hoechst 33342 staining based fluorescence microscopic analysis; format: functional, cell-based; conditions: dose 1.5-6 nM
A549 [20] = test: Antiproliferative activity against human A549 cells assessed as inhibition of cell growth at 0.1 uM measured after 72 hrs by MTT assay relative to control; format: functional
K562 [21] = test: Induction of cell cycle arrest in human K562 cells assessed as accumulation of cells at G2/M phase at 6 nM incubated overnight by PI staining based flow cytometry analysis (reference value: 5.57%); format: functional
Tubulin (Homo sapiens) [22] = target: T1, Tubulin (Homo sapiens); test: Inhibition of tubulin polymerization in human K562 cells assessed as microtubule destruction network at 1.5 to 6 uM incubated for 48 hrs by immunofluorescence staining based inverted microscopic analysis; format: cell-based; conditions: dose 1.5-6 µM
K562 [23] = test: Induction of apoptosis in human K562 cells assessed as downregulation of bcl-xl level at upto 6 nM measured after 48 hrs by Western blot analysis; format: functional, cell-based
A549 [24] = test: Antiproliferative activity against human A549 cells assessed as inhibition of cell growth measured after 72 hrs by MTT assay; format: functional, cell-based; conditions: A549, 72 h
Tubulin (Homo sapiens) [25] = target: T1, Tubulin (Homo sapiens); test: Inhibition of [3H]colchicine binding to tubulin (unknown origin) at 5 uM incubated for 2 hrs by scintillation counter analysis relative to control; format: protein-complex assay
K562 [26] = test: Induction of cell cycle arrest in human K562 cells assessed as accumulation of cells at G1 phase at 3 nM incubated overnight by PI staining based flow cytometry analysis (reference value: 78.45%); format: functional
Tubulin (Homo sapiens) [27] = target: T1, Tubulin (Homo sapiens); test: (§1) Inhibition of tubulin polymerization (unknown origin) preincubated for 5 mins and measured every 5 mins for 60 mins by absorbance based analysis; format: protein-complex assay; conditions: dose 5-10 µM, time 65.0 min
Tubulin = test: as §1; format: protein-complex assay, Homo sapiens
MDA-MB-231 [28] = test: Antiproliferative activity against human MDA-MB-231 cells assessed as inhibition of cell growth measured after 72 hrs by MTT assay; format: functional, cell-based; conditions: MDA-MB-231, 72 h
K562 [29] = test: Antiproliferative activity against human K562 cells assessed as inhibition of cell growth measured after 72 hrs by MTT assay; format: functional, cell-based; conditions: K562, 72 h
[30] = Metabolic stability in mouse liver microsomes assessed as intrinsic clearance at 100 uM measure upto 60 mins in presence of NADPH by LC-MS/MS analysis; format: ADME, Microsome; conditions: 1 h
[31] = Toxicity in mouse assessed as effect on spleen at 20 mg/kg by H and E staining based microscopic analysis; format: organism-based; conditions: in vivo
K562 [32] = test: Induction of cell cycle arrest in human K562 cells assessed as accumulation of cells at G2/M phase at 1.5 nM incubated overnight by PI staining based flow cytometry analysis (reference value: 5.57%); format: functional
K562 [33] = test: Induction of cell cycle arrest in human K562 cells assessed as accumulation of cells at S phase at 1.5 nM incubated overnight by PI staining based flow cytometry analysis (reference value: 15.98%); format: functional
[34] = Toxicity in mouse assessed as effect on heart at 20 mg/kg by H and E staining based microscopic analysis; format: organism-based; conditions: in vivo
H22 [35] = test: Antitumor activity against mouse H22 cells allografted in mouse model assessed as tumor growth inhibition at 20 mg/kg,iv administered once daily for 3 weeks relative to control; format: functional; conditions: H22, 504 h, read-out: TGI
MDA-MB-231 [36] = test: Inhibition of cell invasion in human MDA-MB-231 cells at 1.5 to 6 nM measured after 48 hrs by crystal violet staining microscopy based transwell assay; format: functional; conditions: dose 1.5-6 nM

What does the source list for `CCn1ccc2cc(N3CCC(=O)c4c3cc(OC)c(OC)c4OC)ccc21`?
Activity (H22 [1]): Active; Activity (HUVEC [2]): Active; IC50 at 72 h [3]: 62 nM; Activity (K562 [4]): Active; IC50 (A549/TR): 43 nM; Activity [5]: Non-Toxic; Activity [6]: Non-Toxic; inhibition (Tubulin (Homo sapiens) [7]): 63.9%; Activity (K562 [8]): Active; Activity (H22 [9]): Active; Activity [10]: Non-Toxic; solubility [11]: 6.68 µg/mL (≈ 17.6 µM); Activity (HUVEC [12]): <50%; Activity (Cell membrane): Dose-Dependent Effect; half-life at 100 µM [13]: 10.7 min; Activity (K562 [14]): Active; inhibition at 0.01 µM (A549 [15]): 73.6%; Activity (K562 [16]): 30.18%; Activity (HUVEC [17]): Active; Activity (K562 [18]): 11.44%; Activity (K562 [19]): Active; inhibition at 0.1 µM (A549 [20]): 78.3%; Activity (K562 [21]): 22%; inhibition (Tubulin (Homo sapiens) [22]): Active; Activity (K562 [23]): Active; IC50 (A549 [24]): 8 nM; inhibition (Tubulin (Homo sapiens) [25]): 75.9%; Activity (K562 [26]): 59.63%; inhibition (Tubulin (Homo sapiens) [27]): Dose-Dependent Effect; IC50 (Tubulin): 3060 nM; IC50 (MDA-MB-231 [28]): 24 nM; IC50 (K562 [29]): 3 nM; CLH [30]: 129 µL/min/mg; Activity [31]: Non-Toxic; Activity (K562 [32]): 10.62%; Activity (K562 [33]): 22.58%; Activity [34]: Non-Toxic; inhibition in vivo at 20 mg/kg (H22 [35]): 63.3%; inhibition (MDA-MB-231 [36]): Active
